The values below come from patent US6706721B1, “N-(3-ethynylphenylamino)-6,7-bis(2-methoxyethoxy)-4-quinazolinamine mesylate anhydrate and monohydrate” (OSI Pharmaceuticals, Inc., priority 1998, dated 2004).

The nature of series [1]: resistance to thermal degradation. In kind it is physicochemical.
A further series in a line: hygroscopicity. In kind it is physicochemical.

In the case of `C#Cc1cccc(Nc2ncnc3cc(OCCOC)c(OCCOC)cc23)c1.CS(=O)(=O)O` [Polymorph C, N-(3-ethynylphenyl)-6,7-bis(2-methoxyethoxy)-4-quinazolinamine Mesylate Salt], in series [1], the thermal degradation entry is “resistance to thermal degradation”. The hygroscopicity entry in the series “hygroscopicity” was “essentially non-hygroscopic”.
